Measured values published in PMC12396409, “Screening and hit evaluation of a microbial metabolite library against the pathogenic Plasmodium falciparum and Toxoplasma gondii parasites” (International Journal for Parasitology: Drugs and Drug …, 2025).
Counter-ions that a name gives are not always drawn. Like-named read-outs stand apart in the source and are kept apart here.

Experiments:
[1] = system: P. falciparum 3D7 parasites; experiment: P. falciparum growth inhibition assay, 1-cycle (72 h treatment), SYBR DNA staining (library screen at 2 μg/mL and dose-response); format: cell-based, Plasmodium falciparum; conditions: for activity at 2 µg/mL: Plasmodium falciparum, 3D7, library screen at 2 μg/mL
[2] = system: T. gondii RH strain (RH-Tub-eYFP) tachyzoites; experiment: microbe, parasite or virus in culture; format: cell-based, Toxoplasma gondii
[3] = system: P. falciparum 3D7 parasites; experiment: P. falciparum growth inhibition assay, 2-cycle (120 h treatment), delayed-death screen and dose-response; format: cell-based, Plasmodium falciparum; conditions: for activity at 2 µg/mL: Plasmodium falciparum, 3D7, library screen at 2 μg/mL
[4] = 72 h, % growth, replicate 1, read-out: Pf_72h_%Growth_Rep1
[5] = 72 h, % growth, replicate 2, read-out: Pf_72h_%Growth_Rep2
[6] = 120 h, % growth, replicate 1, read-out: Pf_120h_%Growth_Rep1
[7] = 120 h, % growth, replicate 2, read-out: Pf_120h_%Growth_Rep2
[8] = P. falciparum 3D7, 72 h, parasite screen at 2 μg/mL, % growth, replicate 1
[9] = P. falciparum 3D7, 72 h, parasite screen at 2 μg/mL, % growth, replicate 2
[10] = T. gondii, 72 h, parasite screen at 2 μg/mL, % growth, replicate 1
[11] = T. gondii, 72 h, parasite screen at 2 μg/mL, % growth, replicate 2
[12] = P. falciparum 3D7, 120 h, parasite screen at 2 μg/mL, % growth, replicate 1
[13] = P. falciparum 3D7, 120 h, parasite screen at 2 μg/mL, % growth, replicate 2
[14] = P. falciparum, 72 h, parasite screen 2 μg/mL, % growth, replicate 1
[15] = P. falciparum, 72 h, parasite screen 2 μg/mL, % growth, replicate 2
[16] = T. gondii, 72 h, parasite screen 2 μg/mL, % growth, replicate 1
[17] = T. gondii, 72 h, parasite screen 2 μg/mL, % growth, replicate 2
[18] = P. falciparum, 120 h, parasite screen 2 μg/mL, % growth, replicate 1
[19] = P. falciparum, 120 h, parasite screen 2 μg/mL, % growth, replicate 2
[20] = Toxoplasma gondii, 72 h, library screen at 2 μg/mL, 72 h, % growth, replicate 1; read-out: Tg_72h_%Growth_Rep1
[21] = Toxoplasma gondii, 72 h, library screen at 2 μg/mL, 72 h, % growth, replicate 2; read-out: Tg_72h_%Growth_Rep2

SMILES | activity at 2 µg/mL [1, 4] [%] | activity at 2 µg/mL [1, 5] [%] | activity at 2 µg/mL [3, 6] [%] | activity at 2 µg/mL [3, 7] [%] | Pf_72h_%Growth_Rep1 [1, 14] [%] | Pf_72h_%Growth_Rep2 [1, 15] [%] | Tg_72h_%Growth_Rep1 [2, 16] [%] | Tg_72h_%Growth_Rep2 [2, 17] [%] | Pf_120h_%Growth_Rep1 [3, 18] [%] | Pf_120h_%Growth_Rep2 [3, 19] [%] | further results
CC[C@H](C)[C@H]1C(=O)O[C@H](C(C)C)C(=O)N(C)[C@@H](C(C)C)C(=O)O[C@H](C(C)C)C(=O)N(C)[C@@H](C(C)C)C(=O)O[C@H](C(C)C)C(=O)N1C [Enniatin B1] | 4.56 | 3.05 | 5.98 | 9.66 |  |  |  |  |  |  | percent parasite growth at 2 µg/mL ([2]; Toxoplasma gondii; library screen at 2 μg/mL, 72 h, % growth, replicate 1; read-out: Tg_72h_%Growth_Rep1): 0.26%; percent parasite growth at 2 µg/mL ([2]; Toxoplasma gondii; library screen at 2 μg/mL, 72 h, % growth, replicate 2; read-out: Tg_72h_%Growth_Rep2): 25.7%
CON=C1CC2(CC3CC(CC=C(C)CC(C)C=CC=C4COC5C(O)C(C)=CC(C(=O)O3)C45O)O2)OC(C(C)=CC(C)C)C1C (stereo not drawn) [BIA-M1298] |  |  |  |  |  |  |  |  |  |  | Pf_72h_%Growth_Rep1 [1, 8]: 17.45%; Pf_72h_%Growth_Rep2 [1, 9]: -0.02%; Tg_72h_%Growth_Rep1 [2, 10]: 102.84%; Tg_72h_%Growth_Rep2 [2, 11]: 95.78%; Pf_120h_%Growth_Rep1 [3, 12]: -5.10%; Pf_120h_%Growth_Rep2 [3, 13]: 5.91%
CC(/C=C/C(=O)NO[C@@H]1O[C@H](CO)[C@@H](O)[C@H](O)[C@H]1O)=C\[C@@H](C)C(=O)c1ccc(N(C)C)cc1 [Trichostatin C] |  |  |  |  |  |  |  |  |  |  | Pf_72h_%Growth_Rep1 ([1]; P. falciparum, 72 h, screen at 2 μg/mL, replicate 1): 75.18%; Pf_72h_%Growth_Rep2 ([1]; P. falciparum, 72 h, screen at 2 μg/mL, replicate 2): 84.35%; Tg_72h_%Growth_Rep1 ([2]; T. gondii, 72 h, screen at 2 μg/mL, replicate 1): 87.04%; Tg_72h_%Growth_Rep2 ([2]; T. gondii, 72 h, screen at 2 μg/mL, replicate 2): 108.99%; Pf_120h_%Growth_Rep1 ([3]; P. falciparum, 120 h, screen at 2 μg/mL, replicate 1): 157.32%; Pf_120h_%Growth_Rep2 ([3]; P. falciparum, 120 h, screen at 2 μg/mL, replicate 2): 88.61%
COC(=O)[C@H]1NC(=O)[C@H]2NC(=O)[C@H](NC(=O)[C@@H]3NC(=O)[C@H]4NC(=O)[C@H](NC(=O)[C@H](N)c5ccc(O)c(c5)Oc5cc4cc(O)c5C)[C@H](O)c4ccc(cc4)Oc4cc3cc(c4O[C@@H]3O[C@H](COC4O[C@@H](C)[C@H](O)[C@@H](O)[C@H]4O)[C@@H](O)[C@H](O)[C@H]3O[C@@H]3O[C@@H](CO)[C@H](O)[C@@H](O)[C@H]3O[C@@H]3OC[C@@H](O)[C@@H](O)[C@@H]3O)Oc3ccc(cc3)[C@H]2O[C@@H]2C[C@@H](N)[C@@H](O)[C@H](C)O2)c2ccc(O)c(c2)-c2c(O[C@@H]3O[C@H](CO)[C@@H](O)[C@H](O)[C@@H]3O)cc(O)cc21 (stereo partly drawn) [Ristocetin A sulfate] |  |  |  |  | 85.98 | 111.61 | 119.41 | 85.51 | 82.07 | 109.30 | 
CO[C@@H]1[C@H](N(C)C(=O)c2ccccc2)C[C@H]2O[C@]1(C)n1c3ccccc3c3c4c(c5c6ccccc6n2c5c31)C(=O)NC4=O [Stauprimide] |  |  |  |  | 1.11 | -9.03 | 9.90 | 20.75 | 32.82 | 11.28 | 
C[C@@H](O)[C@H]1C(=O)N2C(C(=O)[O-])=C(SC3Cn4cnc[n+]4C3)[C@H](C)[C@H]12 (stereo partly drawn) [Biapenem] | 84.2 | 84.8 | 85.6 | 79.2 |  |  |  |  |  |  | percent parasite growth at 2 µg/mL [2, 20]: 116%; percent parasite growth at 2 µg/mL [2, 21]: 95.1%
COc1c(O)cc2cc(C)oc(=O)c2c1O [Reticulol] |  |  |  |  | 1.99 | 0.81 | 97.11 | 97.69 | -0.78 | 4.83 | 
COC1=C2C[C@@H](C)C[C@H](OC)[C@H](O)[C@@H](C)/C=C(\C)[C@H](OC(N)=O)[C@@H](OC)/C=C\C=C(/C)C(=O)NC(=CC1=O)C2=O [Geldanamycin] | 5.26 | 2.63 | 25.5 | 11.8 |  |  |  |  |  |  | percent parasite growth at 2 µg/mL [2, 20]: 24.8%; percent parasite growth at 2 µg/mL [2, 21]: 24.3%
CC1=C\[C@@H](O)CC(=O)Cc2nc(co2)C(=O)N2CCC=C2C(=O)O[C@H](C(C)C)[C@H](C)/C=C/C(=O)NC\C=C\1 [BIA-O1131] |  |  |  |  |  |  |  |  |  |  | Pf_72h_%Growth_Rep1 [1, 8]: 59.89%; Pf_72h_%Growth_Rep2 [1, 9]: 79.42%; Tg_72h_%Growth_Rep1 [2, 10]: 125.71%; Tg_72h_%Growth_Rep2 [2, 11]: 88.67%; Pf_120h_%Growth_Rep1 [3, 12]: 16.87%; Pf_120h_%Growth_Rep2 [3, 13]: 26.94%
